In patent US10760110B2, “Antibiotic testing and screening system” (priority 2017, dated 2020):
Where two headings read alike, the source gives them in different places.

Tests used:
[1] = system: K. pneumoniae NVT1001 strains with QnrB, QnrS or AAC(6′)-Ib-cr plasmids; assay: Etest MIC of quinolones, GyrA/ParC mutations, ΔramR and/or QnrB, QnrS or AAC(6′)-Ib-cr (Table 12); type: cell-based; conditions: Klebsiella pneumoniae
Protocol: DNA fragments of the resistance genes along with their flanking regions were amplified from clinical plasmids via PCR with specific primer pairs. The resulting PCR fragments were digested and then cloned into the plasmid pACYC177 or pACYC184. The resulting plasmids were then transformed into K. pneumoniae strain NVT1001 via electroporation. The recombinant bacteria were plated onto LB agar plates containing kanamycin (50 mg/L) or chloramphenicol (50 mg/L), and the presence of the cloned gene was confirmed via PCR and DNA sequencing.
(§1) The MICs of antibiotics were determined using the Etest (Biodisk AB, Sweden) according to the manufacturer's instructions. The MICs from the Etest, which fall between standard two-fold dilutions, were rounded up to the next highest two-fold value. The MICs of ceftazidime and cefotaxime against K. pneumoniae NVT1001 harbouring the pACYC177 plasmid with blaOXA-48 were further determined using a broth microdilution test according to the recommendations of the CLSI,^25 and the results were interpreted according to the breakpoints established by the CLSI in 2017.^25 Meanwhile, due to the lack of CLSI breakpoints in 2016 and 2017, the results for cephalothin were interpreted according to the breakpoints established by the CLSI in 2015,^26 and the results for moxifloxacin were interpreted according to the breakpoints established by the EUCAST in 2017.^27

[2] = system: K. pneumoniae NVT1001 and its GyrA/ParC and ΔramR mutants; assay: Etest MIC of quinolones, GyrA/ParC mutations and AcrAB-TolC overexpression (ΔramR) (Table 10); type: cell-based; conditions: Klebsiella pneumoniae
Text: DNA fragments of the entire gyrA and parC sequences along with their flanking regions were amplified from K. pneumoniae strain NVT1001 using PCR with specific primer pairs and then cloned into the plasmid pUT-KB. The QuikChange site-directed mutagenesis kit (Stratagene) was used to generate mutations in the gyrA and parC genes in the plasmid using the methods described by the manufacturer. For homologous recombination, plasmids containing mutations in the gyrA or parC gene were transformed into E. coli S17-1 λpir^23 via electroporation and mobilized into K. pneumoniae strain NVT1001 via conjugation. Single-crossover strains were selected from BIND plates supplemented with kanamycin (50 mg/L), as the growth of non-K. pneumoniae contaminants is suppressed on BIND plates.^24 After the kanamycin-resistant transconjugants were selected, the insertion of plasmids was verified via PCR. After incubation in 20 mL BHI broth for 6 hours at 37° C. in the absence of kanamycin, the fully grown cultures were spread onto LB agar plates supplemented with 10% sucrose. After the double crossover occurred, the sucrose-resistant and kanamycin-susceptible colonies were selected, and the gene mutations were confirmed via PCR.
as §1

[3] = AAC(6′)-Ib-cr on pACYC177, S83I mutant
[4] = AAC(6′)-Ib-cr on pACYC177, S83I/D87N/S80I mutant
[5] = AAC(6′)-Ib-cr on pACYC177, S83I/S80I mutant
[6] = AAC(6′)-Ib-cr on pACYC177, WT (NVT1001), read-out: MIC
[7] = AAC(6′)-Ib-cr on pACYC177, ΔramR mutant
[8] = AAC(6′)-Ib-cr on pACYC177, ΔramR/S83I mutant
[9] = AAC(6′)-Ib-cr on pACYC177, ΔramR/S83I/D87N/S80I mutant
[10] = AAC(6′)-Ib-cr on pACYC177, ΔramR/S83I/S80I mutant
[11] = QnrB on pACYC177, S83I/D87N/S80I mutant
[12] = QnrB on pACYC177, S83I/S80I mutant
[13] = QnrB on pACYC177, WT (NVT1001), read-out: MIC
[14] = QnrB on pACYC177, ΔramR/S83I mutant
[15] = QnrB on pACYC177, ΔramR/S83I/D87N/S80I mutant
[16] = QnrB on pACYC177, ΔramR/S83I/S80I mutant
[17] = QnrS on pACYC177, S83I/D87N/S80I mutant
[18] = QnrS on pACYC177, S83I/S80I mutant
[19] = QnrS on pACYC177, WT (NVT1001), read-out: MIC
[20] = QnrS on pACYC177, ΔramR/S83I mutant
[21] = QnrS on pACYC177, ΔramR/S83I/D87N/S80I mutant
[22] = QnrS on pACYC177, ΔramR/S83I/S80I mutant
[23] = no supplemental plasmid, S83I mutant
[24] = no supplemental plasmid, S83I/D87N/S80I mutant
[25] = no supplemental plasmid, S83I/S80I mutant
[26] = no supplemental plasmid, WT (NVT1001), read-out: MIC
[27] = no supplemental plasmid, ΔramR mutant
[28] = no supplemental plasmid, ΔramR/S83I mutant
[29] = no supplemental plasmid, ΔramR/S83I/D87N/S80I mutant
[30] = no supplemental plasmid, ΔramR/S83I/S80I mutant

C[C@H]1COc2c(N3CCN(C)CC3)c(F)cc3c(=O)c(C(=O)O)cn1c23 [Levofloxacin, levofloxacin]
MIC [1, 3]: 0.5 mg/L
MIC [1, 4]: 8 mg/L
MIC [1, 5]: 2 mg/L
MIC [1, 6]: 0.06 mg/L
MIC [1, 7]: 1 mg/L
MIC [1, 8]: 8 mg/L
MIC [1, 9]: > 32 mg/L
MIC [1, 10]: > 32 mg/L
MIC ([1]; QnrB on pACYC177, S83I mutant): 2 mg/L
MIC [1, 11]: > 32 mg/L
MIC [1, 12]: 16 mg/L
MIC [1, 13]: 1 mg/L
MIC ([1]; QnrB on pACYC177, ΔramR mutant): 8 mg/L
MIC [1, 14]: > 32 mg/L
MIC [1, 15]: > 32 mg/L
MIC [1, 16]: > 32 mg/L
MIC ([1]; QnrS on pACYC177, S83I mutant): 4 mg/L
MIC [1, 17]: > 32 mg/L
MIC [1, 18]: 32 mg/L
MIC [1, 19]: 1 mg/L
MIC ([1]; QnrS on pACYC177, ΔramR mutant): 8 mg/L
MIC [1, 20]: > 32 mg/L
MIC [1, 21]: > 32 mg/L
MIC [1, 22]: > 32 mg/L
MIC [1, 23]: 0.5 mg/L
MIC [1, 24]: 8 mg/L
MIC [1, 25]: 2 mg/L
MIC [1, 26]: 0.06 mg/L
MIC [1, 27]: 1 mg/L
MIC [1, 28]: 16 mg/L
MIC [1, 29]: > 32 mg/L
MIC [1, 30]: > 32 mg/L
MIC ([2]; D87N mutant (GyrA D87N)): 0.5 mg/L
MIC ([2]; D87N/S80I mutant): 0.5 mg/L
MIC ([2]; NVT1001, read-out: MIC): 0.06 mg/L
MIC ([2]; S80I mutant (ParC S80I)): 0.125 mg/L
MIC ([2]; S83F mutant (GyrA S83F)): 0.5 mg/L
MIC ([2]; S83F/D87N mutant): 0.5 mg/L
MIC ([2]; S83F/D87N/S80I mutant): 8 mg/L
MIC ([2]; S83F/S80I mutant): 0.5 mg/L
MIC ([2]; S83I mutant (GyrA S83I)): 0.5 mg/L
MIC ([2]; S83I/D87N mutant): 1 mg/L
MIC ([2]; S83I/D87N/S80I mutant): 8 mg/L
MIC ([2]; S83I/S80I mutant): 2 mg/L
MIC ([2]; S83L mutant (GyrA S83L)): 0.5 mg/L
MIC ([2]; S83L/D87N mutant): 0.5 mg/L
MIC ([2]; S83L/D87N/S80I mutant): 8 mg/L
MIC ([2]; S83L/S80I mutant): 1 mg/L
MIC ([2]; S83Y mutant (GyrA S83Y)): 0.5 mg/L
MIC ([2]; S83Y/D87N mutant): 0.5 mg/L
MIC ([2]; S83Y/D87N/S80I mutant): 4 mg/L
MIC ([2]; S83Y/S80I mutant): 1 mg/L
MIC ([2]; ΔramR mutant): 1 mg/L
MIC ([2]; ΔramR/S83I mutant): 16 mg/L
MIC ([2]; ΔramR/S83I/D87N/S80I mutant): > 32 mg/L
MIC ([2]; ΔramR/S83I/S801 mutant): > 32 mg/L

COc1c(N2C[C@@H]3CCCN[C@@H]3C2)c(F)cc2c(=O)c(C(=O)O)cn(C3CC3)c12 [Moxifloxacin, moxifloxacin]
MIC [1, 3]: 1 mg/L
MIC [1, 4]: > 32 mg/L
MIC [1, 5]: 8 mg/L
MIC [1, 6]: 0.125 mg/L
MIC [1, 7]: 1 mg/L
MIC [1, 8]: 16 mg/L
MIC [1, 9]: > 32 mg/L
MIC [1, 10]: > 32 mg/L
MIC ([1]; QnrB on pACYC177, S83I mutant): 8 mg/L
MIC [1, 11]: > 32 mg/L
MIC [1, 12]: > 32 mg/L
MIC [1, 13]: 2 mg/L
MIC ([1]; QnrB on pACYC177, ΔramR mutant): > 32 mg/L
MIC [1, 14]: > 32 mg/L
MIC [1, 15]: > 32 mg/L
MIC [1, 16]: > 32 mg/L
MIC ([1]; QnrS on pACYC177, S83I mutant): 8 mg/L
MIC [1, 17]: > 32 mg/L
MIC [1, 18]: > 32 mg/L
MIC [1, 19]: 1 mg/L
MIC ([1]; QnrS on pACYC177, ΔramR mutant): > 32 mg/L
MIC [1, 20]: > 32 mg/L
MIC [1, 21]: > 32 mg/L
MIC [1, 22]: > 32 mg/L
MIC [1, 23]: 1 mg/L
MIC [1, 24]: > 32 mg/L
MIC [1, 25]: 8 mg/L
MIC [1, 26]: 0.125 mg/L
MIC [1, 27]: 1 mg/L
MIC [1, 28]: 8 mg/L
MIC [1, 29]: > 32 mg/L
MIC [1, 30]: > 32 mg/L
MIC ([2]; D87N mutant (GyrA D87N)): 0.5 mg/L
MIC ([2]; D87N/S80I mutant): 1 mg/L
MIC ([2]; NVT1001, read-out: MIC): 0.125 mg/L
MIC ([2]; S80I mutant (ParC S80I)): 0.25 mg/L
MIC ([2]; S83F mutant (GyrA S83F)): 0.5 mg/L
MIC ([2]; S83F/D87N mutant): 0.5 mg/L
MIC ([2]; S83F/D87N/S80I mutant): 32 mg/L
MIC ([2]; S83F/S80I mutant): 1 mg/L
MIC ([2]; S83I mutant (GyrA S83I)): 1 mg/L
MIC ([2]; S83I/D87N mutant): 1 mg/L
MIC ([2]; S83I/D87N/S80I mutant): > 32 mg/L
MIC ([2]; S83I/S80I mutant): 8 mg/L
MIC ([2]; S83L mutant (GyrA S83L)): 0.5 mg/L
MIC ([2]; S83L/D87N mutant): 0.5 mg/L
MIC ([2]; S83L/D87N/S80I mutant): 32 mg/L
MIC ([2]; S83L/S80I mutant): 2 mg/L
MIC ([2]; S83Y mutant (GyrA S83Y)): 0.5 mg/L
MIC ([2]; S83Y/D87N mutant): 0.5 mg/L
MIC ([2]; S83Y/D87N/S80I mutant): 32 mg/L
MIC ([2]; S83Y/S80I mutant): 1 mg/L
MIC ([2]; ΔramR mutant): 1 mg/L
MIC ([2]; ΔramR/S83I mutant): 8 mg/L
MIC ([2]; ΔramR/S83I/D87N/S80I mutant): > 32 mg/L
MIC ([2]; ΔramR/S83I/S801 mutant): > 32 mg/L
